Consider ten molecules from patent US11932870B2, “Compositions and methods for immune cell modulation in adoptive immunotherapies” (Fate Therapeutics, Inc., priority 2016, dated 2024).

The test system of one test is viable CD4+ population. Put plainly: T cell compound screen: CCR7+CD62L+ cells in the viable CD4+ population (flow cytometry). The class given is cell-based, human. The note with it: 10 μM, about 6 days; for CD4 Hit: anti-CD3/anti-CD28 beads, hit = Z-score > +2 for percent or absolute number CCR7+CD62L+ in CD4+; for number or ratio of cells co-expressing CCR7 and CD62L: viable CD4+ population. The text has this:
(§1) In Vitro T Cell Culture. Fresh leukopaks (AllCells, Alameda, CA) were obtained from healthy donors, from which T cells were negatively selected using the EasySep Human T cell Enrichment Kit (Stem Cell Technologies, Vancouver, Canada). The freshly isolated T cells were aliquoted and cryopreserved. On the day the screens were initiated, T cells were thawed and washed into X-Vivo 15 with 5% human AB serum, IL-2, pen/strep, and additional supplements. Cells were dispensed into flat-bottom 384-well plates at 5×10^5 cells/ml with anti-CD3/anti-CD28 beads. Individual compounds were added at a final concentration of 10 μM to each well from column 3 to column 22 of each plate. Positive and negative controls were added to additional wells. Cells were incubated for about 6 days at 37 degrees with 5% CO2.
(§2) Flow Cytometry. On Day 6 of culture, cells were stained with a fixable viability marker and fluorophore-conjugated antibodies: CD3, CD4, CD8, CD45RA, CD45RO, CD62L, CCR7, CD27, and CD122 (BD Biosciences, San Jose, CA; and BioLegend, San Diego, CA). Fluorescent absolute counting beads (Spherotech, Lake Forest, IL) were added just prior to acquisition. Data acquisition was performed on a BD Fortessa X-20 (BD Biosciences) and data were analyzed using Treestar software (FlowJo, Ashland, OR) and Spotfire (Tibco, Boston, MA).
(§3) These cells are characterized by expression of CCR7 and CD62L. Therefore, cells co-expressing both of these identifying markers were evaluated. Within the viable CD4+ population and viable CD8+ population, the percent of cells co-expressing CCR7 and CD62L was determined. The expression of either CD62L or CCR7 on T cells, as indicative of the desired T cell subsets, have been described as having favorable functional characteristics for CAR-T cell therapy, and potentially other adoptive T cell therapies.
(§4) The number of events in each of these gates relative to the number of absolute counting beads in each sample was calculated, defining a measure of the absolute number of naïve, stem cell memory, or central memory T cells within the CD4+ and/or CD8+ populations. A z-Score relative to the screened compound samples within each 384-well plate was calculated for each of these four values: 1) percent CCR7+CD62L+in CD4+, 2) percent CCR7+CD62L+in CD8+, 3) absolute relative number of CCR7+CD62L+in CD4+, and 4) absolute number of CCR7+CD62L+in CD8+(FIGS. 1A and 1i). Z-scores were also calculated for the percent viability of all cells within each sample and the relative absolute number of cells within each sample. A “Z-Score” is a statistical measurement of a score's relationship to the mean in a group of scores. AZ-score of 0 means the score is the same as the mean. AZ-score can also be positive or negative, indicating whether it is above or below the mean and by how many standard deviations.
On the technique in general: In flow cytometry, cells or beads pass a laser one at a time.

A further test relates to viable CD8+ population. Kind of test: T cell compound screen: CCR7+CD62L+ cells in the viable CD8+ population (flow cytometry). The test is classed as cell-based, human. To be noted: 10 μM, about 6 days; for CD8 Hit: anti-CD3/anti-CD28 beads, hit = Z-score > +2 for percent or absolute number CCR7+CD62L+ in CD8+; for number or ratio of cells co-expressing CCR7 and CD62L: viable CD8+ population.
Description: as §1, §2, §3, §4

For a further test, the system named is Nalm-6-luc tumor cells. Kind of test: In vivo tumor clearance by compound-treated CD19 CAR-T cells. The note with it: NSG mice with Nalm-6-luc; 2.0×10^5 cryopreserved compound-treated CAR-T cells per animal (1:1 CD4:CD8); imaging; FIGS. 7 and 8. On the procedure: NSG mice were injected with Nalm-6-luc, a CD19+ human tumor line engineered to express firefly luciferase. CAR-T cells were generated from CD4+ and CD8+ T cells that were separately activated and expanded in vitro. The cells were transduced with the CAR-2 construct (FIG. 2) one day after activation and then replated into 24-well GREX plates with or without the compounds. Half the media was replaced every two days thereafter until harvest one week post-activation. Cells were cryopreserved and then thawed for use. NSG mice were infused with tumor cells followed […] by CAR-T transfer via retroorbital injection. Four days after IV. injection with Nalm-6-luc cells, mice were treated with 2.0×10^5 CAR-T cells per animal (1:1 CD4:CD8). The mice were imaged periodically to determine tumor burden.

The subject of test [1] is CAR-T cells co-cultured with irradiated K562 tumor cells that express CD19. Kind of test: In vitro serial killing/re-stimulation assay. The test is classed as cell-based, human. To be noted: relative to vehicle; FIG. 3C. The source says: An informative clinical parameter that can in some contexts be indicative of likelihood of successful adoptive cell therapy in clinical trials is the ability and extent of expansion of the transferred cells in the patient post-treatment and/or persistence and continued function following initial expansion, e.g., in the context of continued exposure to antigen. The ability of engineered T cells to persist and continue expanding over multiple rounds of antigen stimulation can be indicative of such features and/or likelihood of in vivo function or clinical response. An in vitro serial killing/re-stimulation assay, where the T cells treated by each compound were evaluated for various functions, including expansion and ability to kill tumor cells expressing the target antigen in vitro over multiple rounds of exposure to and withdrawal from antigen, was used as a model system. Such assays were carried out on cells treated with or without compounds, to assess the impact of individual compounds on cell function after repeated encounter with antigen, and cell expansion or persistence in such contexts.
CD8 T cells were activated, transduced, and expanded in the presence of DMSO, TWS119, or DCC-2036. At the end of the expansion, the CAR-T cells were cryopreserved. The serial re-stimulation assay was performed by thawing the CAR-T cells and co-culturing with irradiated K562 tumor cells that express CD19, the antigen recognized by the CAR. Prior to starting each round of killing, cell numbers were adjusted so that CAR-T cell numbers were substantially the same from the cultures generated with DMSO, TWS119, and DCC-2036 treatment respectively. An equal number of irradiated CD19-expressing K562 target cells were added to the different CAR-T cultures.

For another test, the system named is CD8 CAR-T cells. Kind of test: Exhaustion marker expression (PD-1, Tim-3) on CD8 CAR-T cells. The class given is cell-based, human. On the procedure: (§5) Culturing cells in large-scale for phenotypic and exhaustion marker evaluation. Isolated CD8 T cells were activated in bulk on day 0 using anti-CD3/anti-CD28 beads in T cell media supplemented with IL-2. On day 1, cells were transduced with the CAR Construct and cell density was adjusted to 0.5×10^6/ml and 10^6 cells were seeded into 12-well plates in the presence of vehicle, TWS119, or DCC-2036. On day 4, cells were transferred into 6-well plates and 2 ml of T cell media was added to each well. On day 6 another 2 ml of media was added to each well. On day 8, CAR T cells were analyzed on a flow cytometer for surface expression of phenotypic markers (CD62L, CCR7, and CD27) and exhaustion markers (PD-1 and Tim-3).
To determine the effect of compound treatment of CAR-T cells on exhaustion marker expression, cells from three different donors were prepared and treated as described in the protocol above. PD-1 and Tim-3 expression was determined using flow cytometry. […] Tim-3 expression was reduced 2-fold with TWS119, and 3.7-fold with DCC-2036 treatment (FIG. 6A).

The test system of test [2] is CD8 T cells transduced with CAR Construct 1. Put plainly: Tcm phenotype skewing of CAR-T cells (CD62L, CCR7, CD27 surface expression). The note with it: flow cytometry day 8. The class given is cell-based, human. On the procedure:
as §5
To determine the effect of compound treatment on skewing towards a central memory phenotype, isolated CD8 T cells were activated in bulk on day 0 using anti-CD3/anti-CD28 beads in T cell media supplemented with IL-2. On day 1, cells were transduced with the CAR Construct 1 shown in FIG. 2 and cell density was adjusted to 0.5×10^6/ml and 10^6 cells were seeded into 12 well plates in the presence of vehicle (DMSO), TWS119 or DCC-2036 at the same concentrations. On day 4, cells were transferred into 6-well plates and 2 ml of media was added to each well. On day 6 another 2 ml of media was added to each well. On day 8, cells were analyzed on a flow cytometer for cell surface expression of CD27.
The expression of CD27 observed with vehicle treatment was defined as an MFI (mean fluorescence intensity) of 1 and the relative MFI of cells treated with compound was calculated.

SMILES strings stand for the structures.

On to `O=C(O)Cc1cc(I)c(Oc2ccc(O)c(I)c2)c(I)c1` [Tiratricol], for which, in the test with viable CD4+ population, the “CD4 Hit” value is recorded as “CD4”; the “number or ratio of cells co-expressing CCR7 and CD62L” value (from here on “number or ratio”) is given as “increased”. In addition, in the test on viable CD8+ population, the “CD8 Hit” value is listed as “CD8”; the “number or ratio” value is listed as “increased”.
With `Sc1ncnc2nc[nH]c12` [6-Mercaptopurine], in the test with viable CD4+ population, the “CD4 Hit” value is “CD4”; the “number or ratio” value is recorded as “increased”. In addition, in the test on viable CD8+ population, the “CD8 Hit” value was “CD8”; the “number or ratio” value is “increased”.
As for `CC[n+]1c(/C=C/C=C2/N(C)c3ccccc3C2(C)C)sc2ccccc21.[I-]` [AC-93253 iodide], in the test with viable CD4+ population, the “CD4 Hit” value is “CD4”; the “number or ratio” value is “increased”. Further, in the test with viable CD8+ population, the “CD8 Hit” value is on record as “CD8”; the “number or ratio” value is “increased”.
`Oc1c(I)cc(Cl)c2cccnc12` [8-Quinolinol, 5-chloro-7-iodo-]: in the test with viable CD4+ population, the “CD4 Hit” value is “CD4”; the “number or ratio” value is “increased”. For the same molecule, in the test on viable CD8+ population, the “CD8 Hit” value is “CD8”; the “number or ratio” value was “increased”.
Regarding `Nc1ncn([C@@H]2O[C@H](CO)[C@@H](O)[C@H]2O)c(=O)n1` [5-Azacytidine], in the test with viable CD4+ population, the “CD4 Hit” value is listed as “CD4”; the “number or ratio” value is on record as “increased”. Also, in the test on viable CD8+ population, the “CD8 Hit” value is on record as “CD8”; the “number or ratio” value is reported as “increased”.
Take `O=C(O)CN(CCN(CC(=O)O)CC(=O)O)CCN(CC(=O)O)CC(=O)O` [Diethylenetriaminepentaacetic acid, pentasodium]: in the test on viable CD4+ population, the “CD4 Hit” value is listed as “CD4”; the “number or ratio” value is “increased”. Also, in the test with viable CD8+ population, the “CD8 Hit” value was “CD8”; the “number or ratio” value was “increased”.
Turning to `Nc1cccc(-c2cc3c(Oc4cccc(O)c4)ncnc3[nH]2)c1` [TWS119], in the test on Nalm-6-luc tumor cells, the “tumor burden / tumor control” value was “minimal tumor control”. Besides, the “cell number expansion of CAR-T cells in rounds 3 and 4 of the serial re-stimulation assay” value in test [1] was “modest increase in expansion relative to vehicle”. For the same molecule, the “expression of T cell exhaustion marker Tim-3” value with CD8 CAR-T cells (CD8 T cells at one week post activation, relative to DMSO, FIG. 6A) is “reduced expression”. Moreover, in the test with CD8 CAR-T cells (CD8 T cells at one week post activation, relative to DMSO, FIG. 6B), the “expression of T cell exhaustion marker PD-1” value is “reduced expression”. Further, the “reduction of Tim-3 expression” value with CD8 CAR-T cells (relative to vehicle, three donors, FIG. 6A) was 2 fold. For the same molecule, the “decrease in PD-1 surface expression” value in the test with CD8 CAR-T cells (relative to vehicle, three donors, FIG. 6B) is reported as 3.3 fold. Besides, in test [2] (relative to vehicle (DMSO), FIG. 4A), the “increase in the frequency of CAR-T cells expressing both CD62L and CCR7” value is on record as 1.7 fold. Further, the “increase in the expression of the differentiation marker CD27 (relative MFI)” value in test [2] (relative to vehicle (MFI defined as 1), FIG. 4B) was “did not have an effect”.
As for `Oc1cccc(-c2nc(N3CCOCC3)c3oc4ncccc4c3n2)c1` [PI-103], in the test with viable CD4+ population, the “CD4 Hit” value is listed as “CD4”; the “number or ratio” value is “increased”. In addition, in the test with viable CD8+ population, the “CD8 Hit” value was “CD8”; the “number or ratio” value is listed as “increased”.
`Oc1c(Cl)cc(Cl)c2cccnc12` [8-Quinolinol, 5,7-dichloro-]: in the test with viable CD4+ population, the “CD4 Hit” value is “CD4”; the “number or ratio” value is given as “increased”. In the test on viable CD8+ population, the “CD8 Hit” value is listed as “CD8”; the “number or ratio” value was “increased”.
As for `CC(C)C1CCC2(CO2)C2C(=O)OCC(C(=O)O)=CC12` (centres unmarked) [Heptelidic acid], in the test on viable CD4+ population, the “CD4 Hit” value was “CD4”; the “number or ratio” value is on record as “increased”. For the same molecule, in the test on viable CD8+ population, the “CD8 Hit” value is “CD8”; the “number or ratio” value is “increased”.
